Test results published in publication PMC9019904, “AD Informer Set: Chemical tools to facilitate Alzheimer's disease drug discovery” (Alzheimer's & Dementia : Translational Research & Clinical …, 2022).

What was measured:
[1] = tested on: BV2 (mouse microglia) cell line; assay: pHrodo-myelin phagocytosis/cell viability high content imaging assay: phagocytosis signal; format: cell-based
Procedure, shortened: (§1)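 Mouse BV2 and human HMC3 microglia given pHrodo-myelin; phagocytosis and cell viability imaged together by high content imaging about 22 hours after myelin addition. Three measurements extracted, including intensity increase and decrease marking early and later apoptosis.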

[2] = tested on: HMC3 (human microglia) cell line; assay: as above; format: cell-based
Procedure, shortened: as §1

[3] = tested on: BV2 (mouse microglia) cell line; assay: pHrodo-myelin phagocytosis/cell viability high content imaging assay: viability (cell count, nuclear area, nuclear intensity); conditions: 48 hours treatment
Procedure, shortened: (§2)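 Duplicate single-point screen at 10 μM over 48 h, combined with pHrodo-myelin phagocytosis during the last 20 h. Cytotoxicity is taken from imaged cell counts and nuclear intensity changes, normalized to untreated wells as % control.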

[4] = tested on: HMC3 (human microglia) cell line; assay: as above; conditions: 48 hours treatment
Procedure, shortened: as §2

[5] = BV2 cells, 10 uM compound, 48 hours treatment, pHrodo-myelin final 20 hours
[6] = HMC3 cells, 10 uM compound, 48 hours treatment, pHrodo-myelin final 20 hours
[7] = BV2, compound 10 uM, pHrodo-myelin
[8] = HMC3, compound 10 uM, pHrodo-myelin

SMILES | 4. Phagocytosis (% control) [1, 5] | 4. Phagocytosis (% control) [2, 6] | 1. Cell count (% control) ([3]; BV2 cells, 10 uM compound) | 2. Nuclear Area (% Control) ([3]; BV2 cells, 10 uM compound) | 3. Nuclear DNA Intensity (% control) ([3]; BV2 cells, 10 uM compound) | 1. Cell count (% control) ([4]; HMC3 cells, 10 uM compound) | 2. Nuclear Area (% Control) ([4]; HMC3 cells, 10 uM compound) | 3. Nuclear DNA Intensity (% control) ([4]; HMC3 cells, 10 uM compound) | 4. Phagocytosis (% control) [1, 7] | 4. Phagocytosis (% control) [2, 8] | 1. Cell count (% control) ([3]; BV2, compound 10 uM) | 2. Nuclear Area (% Control) ([3]; BV2, compound 10 uM) | 3. Nuclear DNA Intensity (% control) ([3]; BV2, compound 10 uM) | 1. Cell count (% control) ([4]; HMC3, compound 10 uM) | 2. Nuclear Area (% Control) ([4]; HMC3, compound 10 uM) | 3. Nuclear DNA Intensity (% control) ([4]; HMC3, compound 10 uM)
Cc1cc(NC(=O)Nc2ccc(F)c(F)c2)n(-c2ccccc2)n1 [UNC10302846A] | 158.9 % control | 71.8 % control | 131.4 % control | 104.7 % Control | 107.1 % control | 127.2 % control | 103.4 % Control | 94.5 % control |  |  |  |  |  |  |  | 
COc1ccc(CCN2CCN(CCCc3ccccc3)CC2)cc1OC.Cl.Cl [UNC10302848A] | 120.8 % control | 82.7 % control | 91.1 % control | 105.5 % Control | 98.2 % control | 84.9 % control | 99.2 % Control | 95.9 % control |  |  |  |  |  |  |  | 
c1ccc(-c2nn3c(c2-c2ccnc4cc(OCCN5CCOCC5)ccc24)CCC3)nc1 [UNC10302849A] | 134.3 % control | 64.5 % control | 150.2 % control | 109.6 % Control | 98.8 % control | 117.4 % control | 115.4 % Control | 85.1 % control |  |  |  |  |  |  |  | 
O=C(NNc1nc2cc(F)ccc2n2cccc12)c1cnccn1 [UNC10302850A] | 362.4 % control | 103.0 % control | 29.4 % control | 129.5 % Control | 94.0 % control | 86.1 % control | 94.6 % Control | 106.5 % control |  |  |  |  |  |  |  | 
CCOC(=O)N1c2ccc(C(F)(F)F)cc2[C@@H](N(Cc2cc(C(F)(F)F)cc(C(F)(F)F)c2)C(=O)OC)C[C@H]1CC [UNC10302851A] | 135.7 % control | 85.4 % control | 124.9 % control | 104.2 % Control | 100.1 % control | 125.3 % control | 99.8 % Control | 94.2 % control |  |  |  |  |  |  |  | 
CO[C@H]1C[C@@H]2CC[C@@H](C)[C@@](O)(O2)C(=O)C(=O)N2CCCC[C@H]2C(=O)O[C@H]([C@H](C)C[C@@H]2CC[C@@H](O)[C@H](OC)C2)CC(=O)[C@H](C)/C=C(\C)[C@@H](O)[C@@H](OC)C(=O)[C@H](C)C[C@H](C)/C=C/C=C/C=C/1C [UNC10302852A] | 309.6 % control | 64.8 % control | 54.7 % control | 106.2 % Control | 98.8 % control | 103.0 % control | 85.8 % Control | 119.9 % control |  |  |  |  |  |  |  | 
N#Cc1ccc(COC[C@H]2O[C@@H](n3c(NCc4ccc(Cl)c(Cl)c4)nc4c(N)ncnc43)[C@H](O)[C@@H]2O)cc1 [UNC10302853A] | 176.9 % control | 88.3 % control | 54.5 % control | 107.2 % Control | 111.0 % control | 92.6 % control | 103.1 % Control | 98.3 % control |  |  |  |  |  |  |  | 
O=C(Nc1ccc2[nH]nc(-c3ccncc3)c2c1)[C@@H]1CCN(CC(=O)N2CCN(c3ccc(-c4ncccn4)cc3)CC2)C1 [UNC10302854A] | 359.5 % control | 37.1 % control | 43.5 % control | 114.7 % Control | 111.9 % control | 103.4 % control | 110.6 % Control | 94.1 % control |  |  |  |  |  |  |  | 
C[C@H](N/C(=N\c1cccc2ncccc12)NC#N)c1ccccc1 [UNC10302855A] | 124.5 % control | 63.4 % control | 130.8 % control | 103.4 % Control | 103.1 % control | 114.9 % control | 101.2 % Control | 97.7 % control |  |  |  |  |  |  |  | 
O=C(Nc1ccc([N+](=O)[O-])cc1Cl)c1cc(Cl)ccc1O [UNC10302856A] | 133.2 % control | 50.1 % control | 132.8 % control | 104.4 % Control | 103.0 % control | 150.0 % control | 101.6 % Control | 94.0 % control |  |  |  |  |  |  |  | 
COS(=O)(=O)[O-].C[n+]1c2ccccc2nc2ccccc21 [UNC10302857A] | 27.9 % control | 0.031 % control | 16.9 % control | 123.3 % Control | 59.8 % control | 60.7 % control | 61.5 % Control | 197.5 % control |  |  |  |  |  |  |  | 
CNC(=O)[C@H](Cc1c[nH]c2ccccc12)NC(=O)[C@@H](CC(=O)NO)CC(C)C [UNC10302858A] | 100.0 % control | 82.4 % control | 101.6 % control | 102.8 % Control | 98.5 % control | 86.0 % control | 95.1 % Control | 101.4 % control |  |  |  |  |  |  |  | 
Cc1cc(Nc2nc(N[C@@H](C)c3ncc(F)cn3)ncc2Cl)n[nH]1 [UNC10302859A] |  |  |  |  |  |  |  |  | 153.2 % control | 95.5 % control | 53.2 % control | 109.7 % Control | 105.5 % control | 84.7 % control | 121.3 % Control | 92.5 % control
Cc1ccccc1C(=O)Nc1ccc(C(=O)N2CCCC(O)c3cc(Cl)ccc32)c(C)c1 (centres unmarked) [UNC10302860A] |  |  |  |  |  |  |  |  | 197.1 % control | 100.1 % control | 118.5 % control | 108.9 % Control | 107.5 % control | 130.2 % control | 105.3 % Control | 93.3 % control
CC(C)(O)c1coc(S(=O)(=O)[N-]C(=O)Nc2c3c(cc4c2CCC4)CCC3)c1.[Na+] [UNC10302861A] | 115.8 % control | 105.6 % control | 111.0 % control | 101.8 % Control | 106.4 % control | 119.4 % control | 98.5 % Control | 105.7 % control |  |  |  |  |  |  |  | 
Cc1cc(SCc2sc(-c3ccc(C(F)(F)F)c(F)c3)nc2C)ccc1OCC(=O)O [UNC10302862A] | 104.2 % control | 107.7 % control | 73.4 % control | 105.0 % Control | 104.6 % control | 84.5 % control | 103.8 % Control | 93.4 % control |  |  |  |  |  |  |  | 
COc1cc(Nc2ncc(F)c(Nc3ccc4c(n3)N(COP(=O)([O-])[O-])C(=O)C(C)(C)O4)n2)cc(OC)c1OC.[Na+].[Na+] [UNC10302863A] | 0.00651 % control | 201.3 % control | 16.5 % control | 113.6 % Control | 22.9 % control | 80.8 % control | 86.8 % Control | 124.3 % control |  |  |  |  |  |  |  | 
CNC(=O)c1c(F)cccc1Nc1nc(Nc2cc3c(cc2OC)CCN3C(=O)CN(C)C)nc2[nH]ccc12 [UNC10302864A] | 89.4 % control | 58.3 % control | 66.3 % control | 109.6 % Control | 102.8 % control | 108.9 % control | 90.1 % Control | 123.0 % control |  |  |  |  |  |  |  | 
CNC(=O)CN1CCC(Oc2cc3c(Nc4cccc(Cl)c4F)ncnc3cc2OC)CC1 [UNC10302865A] | 68.8 % control | 152.7 % control | 102.4 % control | 110.1 % Control | 101.0 % control | 132.1 % control | 105.8 % Control | 90.8 % control |  |  |  |  |  |  |  | 
